Test results taken from patent US20250288587A1, “Methods of Treating Fibrosis” (Athira Pharma, Inc., priority 2022, published 2025).

Assays:
Format in all cases: in vivo
[1] = system: pulmonary LPS-stimulated rats; assay: Immune cell infiltration in BALF, LPS-induced acute pulmonary inflammation; parameters: key to Total Leukocytes in BALF, reduction in cell count vs disease control / Neutrophils in BALF, reduction in cell count vs disease control: + = >5-25% improvement vs disease control; ++ = >26-50% improvement vs disease control; +++ = >51-100% improvement v disease control; NS means not significant; details: 24 h and 0.5 h before LPS; for Neutrophils in BALF, reduction in cell count vs disease control / Total Leukocytes in BALF, reduction in cell count vs disease control: BALF 4 h post LPS; for total leukocyte counts and neutrophil counts in BALF compared to LPS-only controls: IV
From the text: Acute pulmonary inflammation can be effectively modeled in rats by intratracheal administration of bacterial lipopolysaccharides (LPS). Pulmonary inflammation that is left unresolved can lead to pulmonary fibrosis. The normal process of inflammation is regulated and promoted by expression, secretion, and distribution of inflammatory signaling proteins. Therapeutics intended to reduce inflammation are commonly identified by their ability to change the expression levels of inflammatory signaling molecules, either by disruption of the inflammatory pathway directly, or resolution of the inflammatory signaling cascade. The severity of inflammatory response can be measured by quantifying the amount of immune cell infiltration and secretion of cytokine signaling proteins in bronchoalveolar lavage fluid (BALF).
In this study, acute pulmonary inflammation was induced in healthy male Sprague-Dawley rats (7-9 weeks old at study start) by intratracheal instillation of […] LPS in saline. Test animals were treated with test compounds twice, at 24 hours and 0.5 hours before LPS treatment by intravenous (IV) injection. […] Four hours post LPS administration, animals were euthanized by intraperitoneal injection of thiopentone and 20 mL of cold Hanks Balanced Salt Solution, pH 7.2, was infused into the lungs through tracheal cannulation. BALF was then collected.
Immune cell infiltration was performed by counting total leukocytes using a MUSE® mini flow cytometer, and by manual counting of neutrophil cells in cytospin smears stained with Leishman's staining reagent.

[2] = system: pulmonary LPS-stimulated rats; assay: Cytokine expression in BALF supernatant (multiplex immunoassay), LPS-induced acute pulmonary inflammation; details: for cytokines with significant changes in expression in BALF supernatant versus LPS-only animals: p<0.05, Student's T-test, any tested dose
CFA-stimulated rats = assay: CFA inflammatory pain model, thermal hyperalgesia (Hargreaves method); parameters: key to Thermal Hyperalgesia, change in sensitivity compared to CFA alone / Thermal Hyperalgesia, significant reduction in pain behavior vs CFA alone: NS = no statistically significant change in sensitivity compared to CFA alone; + = statistically significant change in sensitivity compared to CFA alone, p < 0.05; details: for study days on which thermal sensitivity was reduced: PO, post-dose testing, any tested dose; for PWL (paw withdrawal latency) vs CFA+vehicle: day 7 at each dose, data not shown
Description: Response to peripheral inflammatory stimulus can be modeled by administering complete Freund's adjuvant (CFA), a suspension of desiccated mycobacterium in paraffin oil and mannide monooleate, by subcutaneous injection into the rat's footpad. The introduction of CFA to peripheral tissues leads to a rapid, sustained, inflammatory reaction in the treated tissue within 24 hours. Subcutaneous administration of CFA in the plantar region of the paw induces inflammatory pain behaviors that persist for at least 8 days. CFA treatment also leads to the accumulation of inflammatory cytokines in paw tissue at the site of injury, which, if unresolved, can lead to formation of fibrotic tissue. The extent of inflammatory response to CFA can be assessed by quantification of inflammatory cytokines in paw skin lysate, and inflammatory pain behaviors by mechanical allodynia (von Frey test) and thermal hyperalgesia (Hargreaves test).
In one study, Compound 2a was tested for its ability to reduce inflammatory pain behaviors in the CFA inflammation model. On study day 0, […] of CFA was administered subcutaneously in the plantar of the right hind paw. Animals were treated daily with Compound 2a in solution via oral gavage (PO) at doses of 1, 0.1, and 0.025 mg/kg. Treatment began before CFA injection on study day −1 and continued through study day 8.
Thermal hyperalgesia was measured using the Hargreaves method. A temperature ramp was applied to the right hind paw and the paw withdrawal latency (PWL) was recorded as a measure of sensitivity to thermal stimulation. […] Statistical analysis was performed using a 1-way ANOVA with Tukey post-test. A p-value below 0.05 was considered statistically significant.
In another study, Compounds 1a, 5a, and 6a were similarly tested against CFA-induced inflammatory stimulation in the right hind foot for their ability to reduce pain behaviors. This study also included quantification of inflammatory cytokine expression in paw skin lysate. Inflammatory pain stimulation with CFA injection and assessment of mechanical and thermal pain behaviors were performed as described above, with the exception that only post-dose pain behavior testing is reported.
Intraplantar CFA injection occurred at day 0. Treatment with Compounds 1a, 5a, and 6a occurred at days −2, 1, 3, and 7. At day 8, the rats were terminated and cytokine levels were measured in paw skin and plasma. Tissue from paw bone, joint, and muscle were obtained for H&E staining and analysis. Cytokine levels in test compound-treated animals were compared to CFA-stimulated animals. Analytes included interleukin 4 (IL-4), tumor necrosis factor alpha (TNF-α) and interferon gamma (IFN-γ). Statistical analysis consisted of 1-way ANOVA followed by Dunnett's multiple comparisons post-test. Mechanical allodynia and thermal hyperalgesia were tested 1 hour post-dosing on days 1, 3, and 7. PWT refers to […] paw withdrawal threshold where a higher value corresponds to a higher pain threshold. PWL refers to […] paw withdrawal latency where a higher value corresponds to a higher pain threshold.

[3] = 0.075 mg/kg IV, 24 h and 0.5 h before LPS
[4] = 0.75 mg/kg IV, 24 h and 0.5 h before LPS
[5] = 7.5 mg/kg IV, 24 h and 0.5 h before LPS

SMILES: CCC(C)CN1CC2N(C(=O)c3ccc(C(F)(F)F)cc3)CCC(=O)N2[C@@H](C)C1=O (stereo partly shown) [Compound 1a]
- Neutrophils in BALF, reduction in cell count vs disease control ([1]; 0.075 mg/kg IV): + (+ = >5% reduction in cell count vs disease control)
- Total Leukocytes in BALF, reduction in cell count vs disease control ([1]; 0.075 mg/kg IV): + (+ = >5% reduction in cell count vs disease control)
- Neutrophils in BALF, reduction in cell count vs disease control ([1]; 0.75 mg/kg IV): NS
- Total Leukocytes in BALF, reduction in cell count vs disease control ([1]; 0.75 mg/kg IV): NS
- total leukocyte counts and neutrophil counts in BALF compared to LPS-only controls [1]: reduced both total leukocyte counts and neutrophil counts
- CXCL10, significant change in cytokine expression in BALF supernatant [2, 3]: + (+ = Significant change in cytokine quantification, p < 0.05 by Student's T-test)
- IFN-γ, significant change in cytokine expression in BALF supernatant [2, 3]: + (+ = Significant change in cytokine quantification, p < 0.05 by Student's T-test)
- CXCL2, significant change in cytokine expression in BALF supernatant [2, 4]: + (+ = Significant change in cytokine quantification, p < 0.05 by Student's T-test)
- CXCL10, significant change in cytokine expression in BALF supernatant [2, 4]: + (+ = Significant change in cytokine quantification, p < 0.05 by Student's T-test)
- G-CSF, significant change in cytokine expression in BALF supernatant [2, 4]: + (+ = Significant change in cytokine quantification, p < 0.05 by Student's T-test)
- IL-1β, significant change in cytokine expression in BALF supernatant [2, 4]: + (+ = Significant change in cytokine quantification, p < 0.05 by Student's T-test)
- cytokines with significant changes in expression in BALF supernatant versus LPS-only animals [2]: G-CSF, CXCL2, CXCL10, IFN-γ, and IL-1β
- Thermal Hyperalgesia, significant reduction in pain behavior vs CFA alone (CFA-stimulated rats; 8 mg/kg PO, Day 1, 1 h post-dose): NS
- Thermal Hyperalgesia, significant reduction in pain behavior vs CFA alone (CFA-stimulated rats; 8 mg/kg PO, Day 3, 1 h post-dose): NS
- Thermal Hyperalgesia, significant reduction in pain behavior vs CFA alone (CFA-stimulated rats; 8 mg/kg PO, Day 7, 1 h post-dose): + (+ = statistically significant change in sensitivity compared to CFA alone, p < 0.05)
- Thermal Hyperalgesia, significant reduction in pain behavior vs CFA alone (CFA-stimulated rats; 16 mg/kg PO, Day 1, 1 h post-dose): + (+ = statistically significant change in sensitivity compared to CFA alone, p < 0.05)
- Thermal Hyperalgesia, significant reduction in pain behavior vs CFA alone (CFA-stimulated rats; 16 mg/kg PO, Day 3, 1 h post-dose): + (+ = statistically significant change in sensitivity compared to CFA alone, p < 0.05)
- Thermal Hyperalgesia, significant reduction in pain behavior vs CFA alone (CFA-stimulated rats; 16 mg/kg PO, Day 7, 1 h post-dose): + (+ = statistically significant change in sensitivity compared to CFA alone, p < 0.05)
- study days on which thermal sensitivity was reduced (CFA-stimulated rats): study days 1, 3, and 7
- PWL (paw withdrawal latency) vs CFA+vehicle (CFA-stimulated rats): statistically significant increase

SMILES: CCC(C)CN1CC2N(Cc3ccc(C(F)(F)F)cc3)CCC(=O)N2[C@@H](C)C1=O (stereo partly shown) [Compound 5a]
- Neutrophils in BALF, reduction in cell count vs disease control ([1]; 0.075 mg/kg IV): ++ (++ = >25% reduction in cell count vs disease control)
- Total Leukocytes in BALF, reduction in cell count vs disease control ([1]; 0.075 mg/kg IV): ++ (++ = >25% reduction in cell count vs disease control)
- Neutrophils in BALF, reduction in cell count vs disease control ([1]; 0.75 mg/kg IV): + (+ = >5% reduction in cell count vs disease control)
- Total Leukocytes in BALF, reduction in cell count vs disease control ([1]; 0.75 mg/kg IV): + (+ = >5% reduction in cell count vs disease control)
- Neutrophils in BALF, reduction in cell count vs disease control ([1]; 7.5 mg/kg IV): + (+ = >5% reduction in cell count vs disease control)
- Total Leukocytes in BALF, reduction in cell count vs disease control ([1]; 7.5 mg/kg IV): + (+ = >5% reduction in cell count vs disease control)
- total leukocyte counts and neutrophil counts in BALF compared to LPS-only controls [1]: reduced both total leukocyte counts and neutrophil counts
- CCL3, significant change in cytokine expression in BALF supernatant [2, 3]: + (+ = Significant change in cytokine quantification, p < 0.05 by Student's T-test)
- CX3CL1, significant change in cytokine expression in BALF supernatant [2, 3]: + (+ = Significant change in cytokine quantification, p < 0.05 by Student's T-test)
- EGF, significant change in cytokine expression in BALF supernatant [2, 3]: + (+ = Significant change in cytokine quantification, p < 0.05 by Student's T-test)
- IFN-γ, significant change in cytokine expression in BALF supernatant [2, 3]: + (+ = Significant change in cytokine quantification, p < 0.05 by Student's T-test)
- IL-1α, significant change in cytokine expression in BALF supernatant [2, 3]: + (+ = Significant change in cytokine quantification, p < 0.05 by Student's T-test)
- IL-1β, significant change in cytokine expression in BALF supernatant [2, 3]: + (+ = Significant change in cytokine quantification, p < 0.05 by Student's T-test)
- IL-10, significant change in cytokine expression in BALF supernatant [2, 3]: + (+ = Significant change in cytokine quantification, p < 0.05 by Student's T-test)
- IL-12p70, significant change in cytokine expression in BALF supernatant [2, 3]: + (+ = Significant change in cytokine quantification, p < 0.05 by Student's T-test)
- IL-17A, significant change in cytokine expression in BALF supernatant [2, 3]: + (+ = Significant change in cytokine quantification, p < 0.05 by Student's T-test)
- IFN-γ, significant change in cytokine expression in BALF supernatant [2, 4]: + (+ = Significant change in cytokine quantification, p < 0.05 by Student's T-test)
- IL-1α, significant change in cytokine expression in BALF supernatant [2, 4]: + (+ = Significant change in cytokine quantification, p < 0.05 by Student's T-test)
- IL-1β, significant change in cytokine expression in BALF supernatant [2, 4]: + (+ = Significant change in cytokine quantification, p < 0.05 by Student's T-test)
- IL-10, significant change in cytokine expression in BALF supernatant [2, 4]: + (+ = Significant change in cytokine quantification, p < 0.05 by Student's T-test)
- IL-17A, significant change in cytokine expression in BALF supernatant [2, 4]: + (+ = Significant change in cytokine quantification, p < 0.05 by Student's T-test)
- IL-1α, significant change in cytokine expression in BALF supernatant [2, 5]: + (+ = Significant change in cytokine quantification, p < 0.05 by Student's T-test)
- IL-10, significant change in cytokine expression in BALF supernatant [2, 5]: + (+ = Significant change in cytokine quantification, p < 0.05 by Student's T-test)
- cytokines with significant changes in expression in BALF supernatant versus LPS-only animals [2]: CCL3, CXCL1, IFN-γ, IL-1α, IL-1β, IL-10, IL-12p70, and IL-17A
- Thermal Hyperalgesia, significant reduction in pain behavior vs CFA alone (CFA-stimulated rats; 10 mg/kg PO, Day 1, 1 h post-dose): + (+ = statistically significant change in sensitivity compared to CFA alone, p < 0.05)
- Thermal Hyperalgesia, significant reduction in pain behavior vs CFA alone (CFA-stimulated rats; 10 mg/kg PO, Day 3, 1 h post-dose): NS
- Thermal Hyperalgesia, significant reduction in pain behavior vs CFA alone (CFA-stimulated rats; 10 mg/kg PO, Day 7, 1 h post-dose): + (+ = statistically significant change in sensitivity compared to CFA alone, p < 0.05)
- Thermal Hyperalgesia, significant reduction in pain behavior vs CFA alone (CFA-stimulated rats; 20 mg/kg PO, Day 1, 1 h post-dose): NS
- Thermal Hyperalgesia, significant reduction in pain behavior vs CFA alone (CFA-stimulated rats; 20 mg/kg PO, Day 3, 1 h post-dose): NS
- Thermal Hyperalgesia, significant reduction in pain behavior vs CFA alone (CFA-stimulated rats; 20 mg/kg PO, Day 7, 1 h post-dose): + (+ = statistically significant change in sensitivity compared to CFA alone, p < 0.05)
- study days on which thermal sensitivity was reduced (CFA-stimulated rats): study days 1 and 7
- PWL (paw withdrawal latency) vs CFA+vehicle (CFA-stimulated rats): statistically significant increase
